Assay results taken from US20260274892A1, “MACROCYCLIC BROAD SPECTRUM ANTIBIOTICS” (RQx Pharmaceuticals, Inc., priority 2017, published 2026).

Legend:
[1] = tested on: Methicillin Resistant Staphylococcus aureus strain USA 200; assay: Minimum inhibitory concentration (MIC), CLSI broth micro-dilution, S. aureus; assay type: cell-based; details: Staphylococcus aureus, MRSA / USA200, MRSA USA 200, cation adjusted Mueller Hinton Broth + 0.002% Tween-80, 35° C., 22 hours
Summary of the method: (§1)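 Colonies grown 20 h at 35° C on Trypticase Soy agar (MRSA) or Luria agar (E. coli) were suspended in cation-adjusted Mueller Hinton broth with 0.002% Tween-80. Suspensions were added at OD600 0.0005 to 10-point twofold compound dilutions, then incubated 22 h at 35° C.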

[2] = tested on: Escherichia coli ATCC 25922; assay: Minimum inhibitory concentration (MIC), CLSI broth micro-dilution, E. coli; assay type: cell-based; details: Escherichia coli, ATCC25922, 22 h
Summary of the method: as §1

[3] = Table 6, cation adjusted Mueller Hinton Broth + 0.002% Tween-80, 35° C.

MIC ([1]; Table 6) [µM]	MIC [2, 3] [µM]	Structure (SMILES)	MIC ([1]; Table 8) [µM]	MIC ([2]; Table 8, cation adjusted Mueller Hinton Broth + 0.002% Tween-80, 35° C.) [µM]
0.035	0.21	Cc1nc(-c2ccc(C(C)(C)C)cc2)ncc1C(=O)N[C@@H](CCN)C(=O)N(C)[C@@H]1C(=O)N[C@@H](C)C(=O)N[C@H](C(=O)NCC#N)Cc2ccc(OCCN)c(c2)-c2cc1ccc2O (racemic) [Compound 549, rac-(8S,11S,14S)-3-(2-aminoethoxy)-N-(cyanomethyl)-18-hydroxy-11-methyl-14-[methyl-[rac-(2S)-4-amino-2-[[2-(4-tert-butylphenyl)-4-methyl-pyrimidine-5-carbonyl]amino]butanoyl]amino]-10,13-dioxo-9,12-diazatricyclo[13.3.1.12,6]icosa-1(18),2(20),3,5,15(19),16-hexaene-8-carboxamide]	–	–
0.016	0.13	Cc1nc(-c2ccc(C(C)(C)C)cc2)c(Cl)cc1C(=O)N[C@@H](CCN)C(=O)N(C)[C@@H]1C(=O)N[C@@H](C)C(=O)N[C@H](C(=O)NCC#N)Cc2ccc(OCCN)c(c2)-c2cc1ccc2OCCN (racemic) [Compound 407, rac-(8S,11S,14S)-3,18-bis(2-aminoethoxy)-N-(cyanomethyl)-11-methyl-14-[methyl-[rac-(2S)-4-amino-2-[[6-(4-tert-butylphenyl)-5-chloro-2-methyl-pyridine-3-carbonyl]amino]butanoyl]amino]-10,13-dioxo-9,12-diazatricyclo[13.3.1.12,6]icosa-1(18),2(20),3,5,15(19),16-hexaene-8-carboxamide]	–	–
0.55	4.4	CCCCCCCc1ccc(C(=O)N[C@@H](CS)C(=O)N(C)[C@@H]2C(=O)N[C@@H](C)C(=O)N[C@H](C(=O)NCC#N)Cc3ccc(OCCN)c(c3)-c3cc2ccc3OCCN)c(C)c1 (racemic) [Compound 454, rac-(8S,11S,14S)-3,18-bis(2-aminoethoxy)-N-(cyanomethyl)-11-methyl-14-[methyl-[rac-(2R)-2-[(4-heptyl-2-methyl-benzoyl)amino]-3-sulfanyl-propanoyl]amino]-10,13-dioxo-9,12-diazatricyclo[13.3.1.12,6]icosa-1(18),2(20),3,5,15(19),16-hexaene-8-carboxamide]	–	–
0.031	0.5	CCCCc1ccc(Oc2ccc(C(=O)N[C@@H](CCN)C(=O)N(C)[C@@H]3C(=O)N[C@@H](C)C(=O)N[C@H](C(=O)NCC#N)Cc4ccc(OCCN)c(c4)-c4cc3ccc4OCCN)c(Cl)c2)cc1 (racemic) [Compound 377, rac-(8S,11S,14S)-3,18-bis(2-aminoethoxy)-N-(cyanomethyl)-11-methyl-14-[methyl-[rac-(2S)-4-amino-2-[[4-(4-butylphenoxy)-2-chloro-benzoyl]amino]butanoyl]amino]-10,13-dioxo-9,12-diazatricyclo[13.3.1.12,6]icosa-1(18),2(20),3,5,15(19),16-hexaene-8-carboxamide]	–	–
0.033	0.53	CCCc1ccc(-c2ncc(C(=O)N[C@@H](CCN)C(=O)N(C)[C@@H]3C(=O)N[C@@H](C)C(=O)N[C@H](C(=O)NCC#N)Cc4ccc(OCCN)c(c4)-c4cc3ccc4OCCN)c(C)n2)c(C)c1 (racemic) [Compound 222, rac-(8S,11S,14S)-3,18-bis(2-aminoethoxy)-N-(cyanomethyl)-11-methyl-14-[methyl-[rac-(2S)-4-amino-2-[[4-methyl-2-(2-methyl-4-propyl-phenyl)pyrimidine-5-carbonyl]amino]butanoyl]amino]-10,13-dioxo-9,12-diazatricyclo[13.3.1.12,6]icosa-1(18),2(20),3,5,15(19),16-hexaene-8-carboxamide]	–	–
0.031	0.13	Cc1cc(-c2ccc(C(C)(C)C)cc2)ccc1C(=O)N[C@@H](CCN)C(=O)N(C)[C@@H]1C(=O)N[C@@H](C)C(=O)N[C@H](C(=O)NCC#N)Cc2ccc(OCCN)c(c2)-c2cc1ccc2OCCN (racemic) [Compound 203, rac-(8S,11S,14S)-3,18-bis(2-aminoethoxy)-N-(cyanomethyl)-11-methyl-14-[methyl-[rac-(2S)-4-amino-2-[[4-(4-tert-butylphenyl)-2-methyl-benzoyl]amino]butanoyl]amino]-10,13-dioxo-9,12-diazatricyclo[13.3.1.12,6]icosa-1(18),2(20),3,5,15(19),16-hexaene-8-carboxamide]	–	–
0.021	8.2	Cc1nc2cc(-c3ccc(C(C)(C)C)cc3)ccn2c1C(=O)N[C@@H](CCN)C(=O)N(C)[C@@H]1C(=O)N[C@@H](C)C(=O)N[C@H](C(=O)NCC#N)Cc2ccc(OCCN)c(c2)-c2cc1ccc2OCCN (racemic) [Compound 393, rac-(8S,11S,14S)-3,18-bis(2-aminoethoxy)-N-(cyanomethyl)-11-methyl-14-[methyl-[rac-(2S)-4-amino-2-[[7-(4-tert-butylphenyl)-2-methyl-imidazo[1,2-a]pyridine-3-carbonyl]amino]butanoyl]amino]-10,13-dioxo-9,12-diazatricyclo[13.3.1.12,6]icosa-1(18),2(20),3,5,15(19),16-hexaene-8-carboxamide]	–	–
0.016	0.094	CCCC1(c2ccc(-c3nc(C)c(C(=O)N[C@@H](CCN)C(=O)N(C)[C@@H]4C(=O)N[C@@H](C)C(=O)N[C@H](C(=O)NCC#N)Cc5ccc(OCCN)c(c5)-c5cc4ccc5OCCN)c(C)n3)cc2)CC1 (racemic) [Compound 282, rac-(8S,11S,14S)-3,18-bis(2-aminoethoxy)-N-(cyanomethyl)-11-methyl-14-[methyl-[rac-(2S)-4-amino-2-[[4,6-dimethyl-2-[4-(1-propylcyclopropyl)phenyl]pyrimidine-5-carbonyl]amino]butanoyl]amino]-10,13-dioxo-9,12-diazatricyclo[13.3.1.12,6]icosa-1(18),2(20),3,5,15(19),16-hexaene-8-carboxamide]	–	–
0.26	2.1	CCCCCc1ncc(-c2ccc(C(=O)N[C@@H](CCN)C(=O)N(C)[C@@H]3C(=O)N[C@@H](C)C(=O)N[C@H](C(=O)NCC#N)Cc4ccc(OCCN)c(c4)-c4cc3ccc4OCCN)c(C)n2)cn1 (racemic) [Compound 209, rac-(8S,11S,14S)-3,18-bis(2-aminoethoxy)-N-(cyanomethyl)-11-methyl-14-[methyl-[rac-(2S)-4-amino-2-[[2-methyl-6-(2-pentylpyrimidin-5-yl)pyridine-3-carbonyl]amino]butanoyl]amino]-10,13-dioxo-9,12-diazatricyclo[13.3.1.12,6]icosa-1(18),2(20),3,5,15(19),16-hexaene-8-carboxamide]	–	–
–	–	CCCCCOc1ccc(-c2nc(C)c(C(=O)N[C@@H](CCN)C(=O)N(C)[C@@H]3C(=O)N[C@@H](C)C(=O)N[C@H](C(=O)O)Cc4ccc(OCCN)c(c4)-c4cc3ccc4O)c(C)n2)cc1 (racemic) [Compound 642, rac-(8S,11S,14S)-3-(2-aminoethoxy)-18-hydroxy-11-methyl-14-[methyl-[rac-(2S)-4-amino-2-[[4,6-dimethyl-2-(4-pentoxyphenyl)pyrimidine-5-carbonyl]amino]butanoyl]amino]-10,13-dioxo-9,12-diazatricyclo [13.3.1.12,6]icosa-1(18),2(20),3,5,15(19), 16-hexaene-8-carboxylic acid]	0.21	0.23
